# Biological target: hERG (Potassium voltage-gated channel subfamily H member 2) (Homo sapiens, UniProt Q12809)
# Experiment: hERG Channel Inhibition
# Settings: HEK293 cells stably expressing hERG channel, pH 7.35
# Experimental: The assay was performed on hERG channel stably expressed in HEK293 cells. The cells were cultured at 37° C. in a humidified CO2 incubator in the growth medium consisting of DMEM, 10% fetal bovine serum and antibiotics. Prior to the assay, the cells were seeded onto a 12-mm PDL-coated glass coverslip and cultured in a 35-mm Petri dish. […] Giga-seal was maintained during the test. […] Whole-cell hERG currents were recorded following the Petroski protocol: the cell was held at −80 mV, and the voltage step jumped from −80 to 30 mV and stay for 2 seconds with a 20-millisecond prepulse at −40 mV. After depolarization, the voltage was decreased to −40 mV and stay for 2 seconds, and returned back to −80 mV. Test compound was applied by quartz capillary tubes tip (200 m inner diameter), and the flow rate was controlled at 2-3 mL/min with OctaFlow perfusion system. Different concentrations of the compound were applied to the cells for 5 minutes and the hERG current was measured three times before, during and after compound treatment. The data were analyzed using Clampfit 10 software (Molecular Devices) to generate IC50 values.
# hERG (Potassium voltage-gated channel subfamily H member 2), sequence (Q12809 whole entry): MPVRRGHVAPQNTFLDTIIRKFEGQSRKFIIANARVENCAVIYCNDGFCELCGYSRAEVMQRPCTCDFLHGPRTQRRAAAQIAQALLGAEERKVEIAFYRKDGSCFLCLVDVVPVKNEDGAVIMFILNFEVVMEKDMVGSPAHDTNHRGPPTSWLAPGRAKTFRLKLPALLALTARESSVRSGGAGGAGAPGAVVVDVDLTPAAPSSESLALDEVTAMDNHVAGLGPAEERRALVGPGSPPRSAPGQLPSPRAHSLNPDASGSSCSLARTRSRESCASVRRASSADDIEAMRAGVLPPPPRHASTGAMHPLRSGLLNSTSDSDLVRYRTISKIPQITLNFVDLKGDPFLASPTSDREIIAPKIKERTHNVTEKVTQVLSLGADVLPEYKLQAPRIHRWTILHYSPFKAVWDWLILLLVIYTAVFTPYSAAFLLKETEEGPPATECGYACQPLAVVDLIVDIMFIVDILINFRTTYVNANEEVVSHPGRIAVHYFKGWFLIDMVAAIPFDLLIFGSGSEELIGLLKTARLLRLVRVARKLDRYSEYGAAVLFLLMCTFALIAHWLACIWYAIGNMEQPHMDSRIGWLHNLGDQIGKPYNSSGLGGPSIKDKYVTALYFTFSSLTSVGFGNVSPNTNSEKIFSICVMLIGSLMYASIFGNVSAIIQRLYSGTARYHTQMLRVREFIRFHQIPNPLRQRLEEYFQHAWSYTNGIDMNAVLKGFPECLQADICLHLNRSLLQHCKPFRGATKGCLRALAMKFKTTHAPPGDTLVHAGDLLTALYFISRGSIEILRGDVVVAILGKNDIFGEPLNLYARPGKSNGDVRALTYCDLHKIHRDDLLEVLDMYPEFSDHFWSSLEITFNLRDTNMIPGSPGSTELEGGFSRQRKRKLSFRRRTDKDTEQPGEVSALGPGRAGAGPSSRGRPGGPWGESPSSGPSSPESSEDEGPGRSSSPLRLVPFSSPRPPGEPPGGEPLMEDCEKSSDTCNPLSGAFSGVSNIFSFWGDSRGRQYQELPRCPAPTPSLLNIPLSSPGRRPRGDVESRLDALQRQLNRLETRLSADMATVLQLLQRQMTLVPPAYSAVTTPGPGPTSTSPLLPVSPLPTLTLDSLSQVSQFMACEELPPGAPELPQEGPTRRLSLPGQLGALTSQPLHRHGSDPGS
smiles,measurement,value
"FC(F)(F)Oc1ccc(C(F)(F)CN2CCC(Nc3ncnc4[nH]ccc34)CC2)nc1 [US11752155, Compound C-11A']",IC50 at 5 min,3.8 µM
